According to patent publication US20130158098A1, “Alkenyl Substituted Cycloaliphatic Compounds as Chemical Inducers of Proximity” (priority 2010, published 2013):

Columns and labels:
[1] = rat; cited from earlier work
[2] = subchronic toxicity studies; cited from earlier work
[3] = biological target: T1, GFP-PYLcs and ABIcs localization fusion proteins (Arabidopsis thaliana, UniProt Q8VZS8); assay: ABA-induced subcellular relocalization of PYLcs fusion proteins; type: cell-based; details: NLS-ABIcs present; HEK 293T cells
T1 construct: A fragment of PYL1 (aa 33-209) is fused to full length GFP or SOS; HA (from the reverse primer); expressed in transfected cells; host or cells: HEK 293 / HEK 293T
T1 sequence (Q8VZS8 33-209): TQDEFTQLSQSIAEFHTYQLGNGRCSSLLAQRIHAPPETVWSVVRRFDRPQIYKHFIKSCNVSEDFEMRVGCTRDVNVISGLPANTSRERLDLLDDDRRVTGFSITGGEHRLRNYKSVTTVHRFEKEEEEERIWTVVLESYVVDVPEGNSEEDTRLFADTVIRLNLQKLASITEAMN
T1 sequence (P49597 126-434 partner): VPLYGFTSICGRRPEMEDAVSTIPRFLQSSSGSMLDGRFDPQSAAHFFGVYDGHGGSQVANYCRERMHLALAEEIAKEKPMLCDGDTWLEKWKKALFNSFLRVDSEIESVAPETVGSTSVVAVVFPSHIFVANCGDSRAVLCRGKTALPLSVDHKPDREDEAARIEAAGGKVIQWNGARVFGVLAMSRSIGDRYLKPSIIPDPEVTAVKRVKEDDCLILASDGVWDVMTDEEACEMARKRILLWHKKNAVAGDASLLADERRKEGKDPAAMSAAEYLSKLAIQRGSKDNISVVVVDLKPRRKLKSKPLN
Method: (§1) A fragment of ABI1 (aa 126-423) is either fused to full length mouse Brg, full length mouse Numb, full length human CD4 or myristoylation signal. A fragment of PYL1 (aa 33-209) is fused to full length GFP or SOS. Full length SOS is fused either to myristoylation signal or three copies of FKBP12.
(§2) Cells grown on glass coverslips were washed in phosphate-buffered saline (PBS) and fixed with 4% paraformaldehyde (PFA, prepared in PBS) at room temperature for 20 min. After three 5-min washes in PBS, the cells were permeabilized with 5% normal goat serum and 0.1% Triton X-100 in PBS at room temperature for 30 min and incubated with primary antibodies (FLAG antibody M2, Agilent, cat. #200472-21) at 4° C. overnight in the same buffer. The slides were subsequently washed three times with PBS (5 min each wash) and then incubated with Alexa fluorophore 594-conjugated secondary antibodies (Molecular Probes) for 1 hour at room temperature in the dark. Slides were washed three times in PBS for 5 min. Finally, the slides were mounted in Vectashield containing 4′,6-diamidino-2-phenylindole (DAPI; H-1500, Vector Laboratories) and imaged (63×) with a Leica DM5000B microscope.
(§3) The area and integrated fluorescence intensity of the whole cell and the nucleus were measured with Fiji (an open-source image processing package based on ImageJ) for images from the cytoplasmic or nuclear localization experiments. The area and the integrated fluorescence intensity of the cytoplasm were calculated by subtracting the value of the nucleus from the whole cell. The mean fluorescence intensity of nucleus or cytoplasm was calculated by dividing the integrated fluorescence intensity with the area of each subcellular compartment. The ratio between nuclear or cytoplasmic distribution was calculated by comparing the corresponding mean fluorescence intensity. Twenty cells were measured in each experiment.
(§4) The activities of proteins are often regulated by their subcellular localization. In another variation of domain reconstitution, the ability of ABA-induced proximity to control the localization of a chosen protein was tested. Fusions of ABIcs to specific subcellular localization domains were constructed and ABA was used to dimerize these ABIcs localization fusion proteins to green fluorescent protein (GFP)-fused PYLcs. The relocation of GFP-PYLcs to four subcellular locations was induced by fusing ABIcs to (i) Numb to serve as a cytoplasmic localization partner (Dho, S. E. et al. (1999) Characterization of four mammalian Numb protein isoforms: Identification of cytoplasmic and membrane-associated variants of the phosphotyrosine binding domain. J. Biol. Chem. 274, 33097-33104), (ii) to a nuclear localization sequence (NLS) or to Brg1 (Brm/SWI2-related gene 1) to serve as nuclear localization partners (Khavari, P. A. et al. (1993) BRG1 contains a conserved domain of the SWI2/SNF2 family necessary for normal mitotic growth and transcription. Nature 366, 170-174), (iii) to CD4 (cluster of differentiation 4) to serve as a plasma membrane localization partner (Sattentau, Q. J. et al. (1988) The CD4 antigen: Physiological ligand and HIV receptor. Cell 52, 631-633), or (iv) to a myristoylation (myr) sequence to serve as a plasma membrane and an intracellular membrane localization partner (Holsinger, L. J. et al. (1995) Signal transduction in T lymphocytes using a conditional allele of Sos. Proc. Natl. Acad. Sci. U.S.A. 92, 9810-9814)).

[4] = biological target: T2, GFP-PYLcs and ABIcs localization fusion proteins (Arabidopsis thaliana, UniProt Q8VZS8); assay: as above; type: cell-based
T2 construct: A fragment of PYL1 (aa 33-209) is fused to full length GFP or SOS; HA (from the reverse primer); expressed in transfected cells; host or cells: HEK 293 / HEK 293T
T2 sequence (Q8VZS8 33-209): T1 sequence (Q8VZS8 33-209)
T2 sequence (P49597 126-423 partner): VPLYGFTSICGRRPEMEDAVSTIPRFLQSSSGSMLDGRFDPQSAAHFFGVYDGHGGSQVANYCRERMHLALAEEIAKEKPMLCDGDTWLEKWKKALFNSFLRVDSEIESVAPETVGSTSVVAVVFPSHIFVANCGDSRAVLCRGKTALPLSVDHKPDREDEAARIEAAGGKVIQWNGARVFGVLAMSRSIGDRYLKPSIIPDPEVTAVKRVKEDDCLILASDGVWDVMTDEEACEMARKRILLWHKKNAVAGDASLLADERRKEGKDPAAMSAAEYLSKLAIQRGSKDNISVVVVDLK
Method: as §1, §2, §3, §4

## CC1=CC(=O)CC(C)(C)C1(O)/C=C/C(C)=C/C(=O)O (stereo not shown) [ABA, abscisic acid]
[1]
  acute oral median lethal dose (LD50): > 5000 mg/kg
[2]
  no observable adverse effect level (NOAEL): 20,000 mg/kg per day
[3]
  redistribution of cytoplasmic Numb-GFP-PYLcs into the nucleus: triggered the redistribution
[4]; 293T cells, ABA and Rap added together
  time to relocalization of mCherry-PYLcs to Brg-ABIcs (nucleus): ≤ 30 min
[4]; 293T cells, ABA or Rap added
  membrane localization of GFP-PYLcs to myr-ABIcs, specificity: observed only when the matching small molecule was added
[4]; Brg1-ABIcs or CD4-ABIcs, HEK 293T cells
  time to relocation of GFP-PYLcs to the nucleus or membrane: ≤ 30 min
[4]; Numb-ABIcs, HEK 293T cells
  time to cytoplasmic accumulation of GFP-PYLcs: ≤ 30 min
